Laboratory results as given in PubChem BioAssay AID2060611 (Molecular Pharmacology Branch, DTP, NCI, 2025).
Values joined by “and” are separate entries in the source; they are usually repeats but may differ in a detail not shown here. Equal entries are not always repeated.

Tested on: 628569-122-R-J1-PDC complex spheroid viability
Test: Anticancer human tumor 628569-122-R-J1-PDC patient-derived head and neck squamous carcinoma cell line growth inhibition [CLK]
Details: for viability, T/C: stronger effect = lower value
Procedure, shortened: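 Multi-cell-type spheroids combined patient-derived tumor cells with HUVEC endothelial cells and human mesenchymal stem cells. Paired agents were dosed in half-log steps down from about clinical Cmax, or from 10 microM where Cmax was unknown.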

[1] = curve of first compound, second compound 0.0316 µM
[2] = curve of first compound, second compound 0.1 µM
[3] = curve of first compound, second compound 0.316 µM
[4] = curve of first compound, second compound 1 µM
[5] = curve of first compound, second compound 3.16 µM
[6] = curve of first compound, second compound 10 µM
[7] = second compound 0.0316 µM, first compound 0.0316 µM
[8] = second compound 0.0316 µM, first compound 0.1 µM
[9] = second compound 0.0316 µM, first compound 0.316 µM
[10] = second compound 0.0316 µM, first compound 1 µM
[11] = second compound 0.0316 µM, first compound 3.16 µM
[12] = second compound 0.0316 µM, first compound 10 µM
[13] = second compound 0.1 µM, first compound 0.0316 µM
[14] = second compound 0.1 µM, first compound 0.1 µM
[15] = second compound 0.1 µM, first compound 0.316 µM
[16] = second compound 0.1 µM, first compound 1 µM
[17] = second compound 0.1 µM, first compound 3.16 µM
[18] = second compound 0.1 µM, first compound 10 µM
[19] = second compound 0.316 µM, first compound 0.0316 µM
[20] = second compound 0.316 µM, first compound 0.1 µM
[21] = second compound 0.316 µM, first compound 0.316 µM
[22] = second compound 0.316 µM, first compound 1 µM
[23] = second compound 0.316 µM, first compound 3.16 µM
[24] = second compound 0.316 µM, first compound 10 µM
[25] = second compound 1 µM, first compound 0.0316 µM
[26] = second compound 1 µM, first compound 0.1 µM
[27] = second compound 1 µM, first compound 0.316 µM
[28] = second compound 1 µM, first compound 1 µM
[29] = second compound 1 µM, first compound 3.16 µM
[30] = second compound 1 µM, first compound 10 µM
[31] = second compound 3.16 µM, first compound 0.0316 µM
[32] = second compound 3.16 µM, first compound 0.1 µM
[33] = second compound 3.16 µM, first compound 0.316 µM
[34] = second compound 3.16 µM, first compound 1 µM
[35] = second compound 3.16 µM, first compound 3.16 µM
[36] = second compound 3.16 µM, first compound 10 µM
[37] = second compound 10 µM, first compound 0.0316 µM
[38] = second compound 10 µM, first compound 0.1 µM
[39] = second compound 10 µM, first compound 0.316 µM
[40] = second compound 10 µM, first compound 1 µM
[41] = second compound 10 µM, first compound 3.16 µM
[42] = second compound 10 µM, first compound 10 µM
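Also: spheroids exposed to agents for seven days before readout.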
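For viability, T/C in this document: 100% = DMSO vehicle control viability.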

SMILES: C=CC(=O)N1CCN(c2nc(=O)n(-c3c(C)ccnc3C(C)C)c3nc(-c4c(O)cccc4F)c(F)cc23)C(C)C1 (stereo not drawn) + CN1CCN(c2cc(C(=O)Nc3cc4cc(-c5cnn(C)c5)ccc4cn3)ccn2)CC1
- IC50 [1]: > 10000 nM
- IC50 [2]: > 10000 nM
- IC50 [3]: < 31.6 nM
- IC50 [4]: < 31.6 nM
- IC50 [5]: < 31.6 nM
- IC50 [6]: < 31.6 nM
- viability, T/C [7]: 104%
- viability, T/C [8]: 89.4%
- viability, T/C [9]: 110%
- viability, T/C [10]: 113%
- viability, T/C [11]: 132%
- viability, T/C [12]: 140%
- viability, T/C [13]: 51.7%
- viability, T/C [14]: 65.7%
- viability, T/C [15]: 77.1%
- viability, T/C [16]: 81.3%
- viability, T/C [17]: 86.2%
- viability, T/C [18]: 71.4%
- viability, T/C [19]: 32.5%
- viability, T/C [20]: 38.2%
- viability, T/C [21]: 41.5%
- viability, T/C [22]: 37.5%
- viability, T/C [23]: 51%
- viability, T/C [24]: 31.4%
- viability, T/C [25]: 6.64%
- viability, T/C [26]: 5.37%
- viability, T/C [27]: 5.91%
- viability, T/C [28]: 5.6%
- viability, T/C [29]: 8.96%
- viability, T/C [30]: 6.5%
- viability, T/C [31]: 9.3%
- viability, T/C [32]: 9.76%
- viability, T/C [33]: 6.13%
- viability, T/C [34]: 4.78%
- viability, T/C [35]: 5.85%
- viability, T/C [36]: 4.66%
- viability, T/C [37]: 2.59%
- viability, T/C [38]: 1.73%
- viability, T/C [39]: 2.2%
- viability, T/C [40]: 1.51%
- viability, T/C [41]: 4.91%
- viability, T/C [42]: 3.2%

SMILES: CC1COCCN1c1cc(C2(S(C)(=N)=O)CC2)nc(-c2ccnc3[nH]ccc23)n1 (stereo not drawn) + CNC(=O)c1ccc(Nc2nc(OC3CCCC3)c3c(-c4ccc5nc(C)oc5c4)c[nH]c3n2)c(OC)c1
- IC50 [1]: 930 nM
- IC50 [2]: 2970 nM
- IC50 [3]: 1380 nM
- IC50 [4]: < 31.6 nM
- IC50 [5]: < 31.6 nM
- IC50 [6]: < 31.6 nM
- viability, T/C [7]: 103%
- viability, T/C [8]: 100%
- viability, T/C [9]: 67.5%
- viability, T/C [10]: 51.4%
- viability, T/C [11]: 45%
- viability, T/C [12]: 35.3%
- viability, T/C [13]: 66.2%
- viability, T/C [14]: 58.3%
- viability, T/C [15]: 56.1%
- viability, T/C [16]: 54.5%
- viability, T/C [17]: 54%
- viability, T/C [18]: 40%
- viability, T/C [19]: 45%
- viability, T/C [20]: 64.8%
- viability, T/C [21]: 50.9%
- viability, T/C [22]: 52.3%
- viability, T/C [23]: 44.7%
- viability, T/C [24]: 35.6%
- viability, T/C [25]: 45.1%
- viability, T/C [26]: 46.2%
- viability, T/C [27]: 40.4%
- viability, T/C [28]: 38.3%
- viability, T/C [29]: 41.8%
- viability, T/C [30]: 33.8%
- viability, T/C [31]: 44.1%
- viability, T/C [32]: 55.3%
- viability, T/C [33]: 47.2%
- viability, T/C [34]: 37.7%
- viability, T/C [35]: 36.7%
- viability, T/C [36]: 32%
- viability, T/C [37]: 44.2%
- viability, T/C [38]: 43.7%
- viability, T/C [39]: 39.7%
- viability, T/C [40]: 40.4%
- viability, T/C [41]: 39%
- viability, T/C [42]: 29.4%

SMILES: O=C(c1cc(Cc2n[nH]c(=O)c3ccccc23)ccc1F)N1CCN(C(=O)C2CC2)CC1
- viability, T/C (compound 0.0316 µM): 86.8% and 91.2%
- viability, T/C (compound 0.1 µM): 96.3% and 91.3%
- viability, T/C (compound 0.316 µM): 90.6% and 110%
- viability, T/C (compound 1 µM): 88.7% and 91.9%
- viability, T/C (compound 3.16 µM): 74.6% and 93.7%
- viability, T/C (compound 10 µM): 55.2% and 51.5%
- IC50 (curve of compound): > 10000 nM

SMILES: COc1c(OCCCN2CCOCC2)ccc2c3n(c(=NC(=O)c4cnc(N)nc4)nc12)CCN3
- viability, T/C (compound 0.00316 µM): 79.2% and 77.8%
- viability, T/C (compound 0.01 µM): 61.3% and 39.7%
- viability, T/C (compound 0.0316 µM): 33.9% and 37.7%
- viability, T/C (compound 0.1 µM): 21.9% and 23.6%
- viability, T/C (compound 0.316 µM): 15.5% and 12.8%
- viability, T/C (compound 1 µM): 4.99% and 10.7%
- IC50 (curve of compound): 16 nM and 9.1 nM
